Experimental data taken from patent publication US8536332B2, “Modulating signal transduction pathways with substituted pyridol [2,3-b] pyrazines” (Aeterna Zentaris GmbH, priority 2007, dated 2013).

Compound	melting point
CCNC(=O)Nc1ccc2ncc(-c3ccc(OP(=O)(OCC)OCC)c(OC)c3)nc2n1	182 to 184 °C
CCNC(=O)Nc1ccc2ncc(-c3ccc(OP(=O)([O-])[O-])c(OC)c3)nc2n1.[Na+].[Na+]	> 350 °C
CCNC(=O)Nc1cnc2ccc(Nc3ccc(C)cc3)nc2n1 [Compound 1, 1-Ethyl-3-(6-p-tolylamino-pyrido[2,3-b]pyrazin-3-yl)-urea]	235 °C
CCNC(=O)Nc1cnc2ccc(-c3ccc(N)c(OC)c3)nc2n1 [Compound 2, 1-[6-(4-Amino-3-methoxy-phenyl)-pyrido[2,3-b]pyrazin-3-yl]-3-ethyl-urea]	> 310 °C
COc1cc(-c2ccc3ncc(NC(=O)Nc4ccccc4)nc3n2)ccc1O [Compound 3, 1-[6-(4-Hydroxy-3-methoxy-phenyl)-pyrido[2,3-b]pyrazin-3-yl]-3-phenyl-urea]	240 °C
CCNC(=O)Nc1cnc2ccc(-c3ccc(Cl)cc3)nc2n1 [Compound 6, 1-[6-(4-Chloro-phenyl)-pyrido[2,3-b]pyrazin-3-yl]-3-ethyl-urea]	276 °C
CCNC(=O)Nc1cnc2ccc(-c3ccncc3)nc2n1 [Compound 7, 1-Ethyl-3-(6-pyridin-4-yl-pyrido[2,3-b]pyrazin-3-yl)-urea]	211 °C
CCNC(=O)Nc1cnc2ccc(-c3cc(Cl)c(O)c(Cl)c3)nc2n1 [Compound 9, 1-[6-(3,5-Dichloro-4-hydroxy-phenyl)-pyrido[2,3-b]pyrazin-3-yl]-3-ethyl-urea]	> 300 °C
CCNC(=O)Nc1cnc2ccc(-c3cnn(C)c3)nc2n1 [Compound 10, 1-Ethyl-3-[6-(1-methyl-1H-pyrazol-4-yl)-pyrido[2,3-b]pyrazin-3-yl]urea]	211 °C
CCNC(=O)Nc1cnc2ccc(-c3ccc(OC)cc3)nc2n1 [Compound 11, 1-Ethyl-3-[6-(4-methoxy-phenyl)-pyrido[2,3-b]pyrazin-3-yl]-urea]	244 °C
CCNC(=O)Nc1cnc2ccc(Nc3ccccc3)nc2n1 [Compound 13, 1-Ethyl-3-(6-phenylamino-pyrido[2,3-b]pyrazin-3-yl)-urea]	202 °C
O=C(Nc1ccccc1)Nc1cnc2ccc(Nc3ccccc3)nc2n1 [Compound 14, 1-Phenyl-3-(6-phenylamino-pyrido[2,3-b]pyrazin-3-yl)-urea]	251 °C
CCNC(=O)Nc1cnc2ccc(Nc3cc(Cl)c(O)c(Cl)c3)nc2n1 [Compound 15, 1-[6-(3,5-Dichloro-4-hydroxy-phenylamino)-pyrido[2,3-b]pyrazin-3-yl]-3-ethyl-urea]	272 °C
CCCNC(=O)Nc1cnc2ccc(-c3ccc(O)c(OC)c3)nc2n1 [Compound 16, 1-[6-(4-Hydroxy-3-methoxy-phenyl)-pyrido[2,3-b]pyrazin-3-yl]-3-propyl-urea]	220 to 222 °C
COc1cc(-c2ccc3ncc(NC(=O)NC4CCCCC4)nc3n2)ccc1O [Compound 17, 1-Cyclohexyl-3-[6-(4-hydroxy-3-methoxy-phenyl)-pyrido[2,3-b]pyrazin-3-yl]-urea]	232 to 235 °C
C=CCNC(=O)Nc1cnc2ccc(-c3ccc(O)c(OC)c3)nc2n1 [Compound 18, 1-Allyl-3-[6-(4-hydroxy-3-methoxy-phenyl)-pyrido[2,3-b]pyrazin-3-yl]-urea]	211 to 213 °C

The remaining lines, values ahead:

melting point	Compound
212 to 214 °C	COc1cc(-c2ccc3ncc(NC(=O)NC(C)C)nc3n2)ccc1O [Compound 19, 1-[6-(4-Hydroxy-3-methoxy-phenyl)-pyrido[2,3-b]pyrazin-3-yl]-3-isopropyl-urea]
255 °C	CCNC(=O)Nc1cnc2ccc(Nc3ccc(O)c(OC)c3)nc2n1 [Compound 21, 1-Ethyl-3-[6-(4-hydroxy-3-methoxy-phenylamino)-pyrido[2,3-b]pyrazin-3-yl]-urea]
> 235 °C	CCNC(=O)Nc1cnc2ccc(-c3ccc(OC)c(OC)c3)nc2n1 [Compound 22, 1-[6-(3,4-Dimethoxy-phenyl)-pyrido[2,3-b]pyrazin-3-yl]-3-ethyl-urea]
> 230 °C	CCNC(=O)Nc1cnc2ccc(-c3cc(OC)c(OC)c(OC)c3)nc2n1 [Compound 23, 1-Ethyl-3-[6-(3,4,5-trimethoxy-phenyl)-pyrido[2,3-b]pyrazin-3-yl]-urea]
277 °C	CCNC(=O)Nc1cnc2ccc(Nc3ccc(O)cc3)nc2n1 [Compound 24, 1-Ethyl-3-[6-(4-hydroxy-phenylamino)-pyrido[2,3-b]pyrazin-3-yl]-urea]
195 °C	CCNC(=S)Nc1cnc2ccc(Nc3ccc(C)cc3)nc2n1 [Compound 25, 1-Ethyl-3-(6-p-tolylamino-pyrido[2,3-b]pyrazin-3-yl)-thiourea]
235 to 237 °C	COc1cc(-c2ccc3ncc(NC(=O)NCCc4ccccc4)nc3n2)ccc1O [Compound 26, 1-[6-(4-Hydroxy-3-methoxy-phenyl)-pyrido[2,3-b]pyrazin-3-yl]-3-phenethyl-urea]
249 to 252 °C	COc1cc(-c2ccc3ncc(NC(=O)Nc4c(C)noc4C)nc3n2)ccc1O [Compound 27, 1-(3,5-Dimethyl-isoxazol-4-yl)-3-[6-(4-hydroxy-3-methoxy-phenyl)-pyrido[2,3-b]pyrazin-3-yl]-urea]
219 to 222 °C	COc1cc(-c2ccc3ncc(NC(=O)NC(C)(C)C)nc3n2)ccc1O [Compound 28, 1-tert-Butyl-3-[6-(4-hydroxy-3-methoxy-phenyl)-pyrido[2,3-b]pyrazin-3-yl]-urea]
229 to 231 °C	COc1cc(-c2ccc3ncc(NC(=O)NCc4ccccc4)nc3n2)ccc1O [Compound 29, 1-Benzyl-3-[6-(4-hydroxy-3-methoxy-phenyl)-pyrido[2,3-b]pyrazin-3-yl]-urea]
277 to 280 °C	CCNC(=O)Nc1cnc2ccc(Nc3ccc(O)c(Cl)c3)nc2n1 [Compound 31, 1-[6-(3-Chloro-4-hydroxy-phenylamino)-pyrido[2,3-b]pyrazin-3-yl]-3-ethyl-urea]
265 to 270 °C	CCNC(=O)Nc1cnc2ccc(Nc3cnc4ccccc4c3)nc2n1 [Compound 32, 1-Ethyl-3-[6-(quinolin-3-ylamino)-pyrido[2,3-b]pyrazin-3-yl]-urea]
245 to 247 °C	CCNC(=O)Nc1ccc2ncc(-c3ccc4c(c3)N(C)CCO4)nc2n1 [Compound 35, 1-Ethyl-3-[3-(4-methyl-3,4-dihydro-2H-benzo[1,4]oxazin-6-yl)-pyrido[2,3-b]pyrazin-6-yl]-urea]
177 °C	CC(=O)Nc1ccc2ncc(Nc3cccc(OC(C)C)c3)nc2n1 [Compound 36, N-[3-(3-Isopropoxy-phenylamino)-pyrido[2,3-b]pyrazin-6-yl]-acetamide]
247 to 249 °C	CCNC(=O)Nc1ccc2ncc(-c3cc(Cl)c(OS(C)(=O)=O)c(OC)c3)nc2n1 [Compound 37, Methanesulfonic acid 2-chloro-4-[6-(3-ethyl-ureido)-pyrido[2,3-b]pyrazin-3-yl]-6-methoxy-phenyl ester]
> 240 °C	CCNC(=O)Nc1ccc2ncc(-c3ccc(NC(=O)OCCOC)c(OC)c3)nc2n1 [Compound 40, {4-[6-(3-Ethyl-ureido)-pyrido[2,3-b]pyrazin-3-yl]-2-methoxy-phenyl}-carbamic acid 2-methoxy-ethyl ester]
